In ChEMBL document CHEMBL1201862, “PubChem BioAssay data set” (2004) one finds IC50 and EC50 data, which are given here for two molecules.

Active and inactive are the calls of the source. Rule as the data show it, for most assays here: actives have a measured EC50 and inactives only a lower limit.

Experiment [1] has as its target T1, Rac GTPase-activating protein 1 (Homo sapiens, UniProt Q9H0H5).
T1 sequence (Q9H0H5 whole entry): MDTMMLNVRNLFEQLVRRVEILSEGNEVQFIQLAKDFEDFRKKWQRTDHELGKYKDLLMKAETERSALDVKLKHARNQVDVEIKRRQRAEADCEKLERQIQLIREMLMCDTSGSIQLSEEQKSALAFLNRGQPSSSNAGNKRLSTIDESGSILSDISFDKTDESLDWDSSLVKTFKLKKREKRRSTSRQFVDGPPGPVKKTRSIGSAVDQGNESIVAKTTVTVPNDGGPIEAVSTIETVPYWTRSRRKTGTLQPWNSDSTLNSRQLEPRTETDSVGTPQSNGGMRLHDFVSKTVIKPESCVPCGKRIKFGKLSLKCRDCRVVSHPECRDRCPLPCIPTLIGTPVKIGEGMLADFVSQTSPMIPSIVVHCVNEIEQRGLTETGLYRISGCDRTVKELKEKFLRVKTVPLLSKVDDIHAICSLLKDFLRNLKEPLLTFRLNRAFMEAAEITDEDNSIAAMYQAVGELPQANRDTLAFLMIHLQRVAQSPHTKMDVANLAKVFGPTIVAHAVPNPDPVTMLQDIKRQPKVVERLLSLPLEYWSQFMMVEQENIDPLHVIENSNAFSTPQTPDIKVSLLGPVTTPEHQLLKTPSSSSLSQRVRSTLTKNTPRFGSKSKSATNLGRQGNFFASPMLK
Description: blockers of MgcRacGAP-driven Rac1 GTP hydrolysis – biochemical, ADP Hunter fluorescence, primary and confirmatory, confirmation (AID 624330). Type of experiment: functional.

Experiment [2] has as its target Dual specificity protein phosphatase 3 (Homo sapiens, UniProt P51452). Nature of the experiment: VHR phosphatase inhibition, dose response, selectivity assay for STEP inhibitor project, biochemical (AID 602374). In kind it is functional. The following applies: read-out: IC50_Mean.
Experiment [3] addresses T2, Protein RecA (Mycobacterium tuberculosis, UniProt P9WHJ3).
T2 sequence (P9WHJ3 whole entry): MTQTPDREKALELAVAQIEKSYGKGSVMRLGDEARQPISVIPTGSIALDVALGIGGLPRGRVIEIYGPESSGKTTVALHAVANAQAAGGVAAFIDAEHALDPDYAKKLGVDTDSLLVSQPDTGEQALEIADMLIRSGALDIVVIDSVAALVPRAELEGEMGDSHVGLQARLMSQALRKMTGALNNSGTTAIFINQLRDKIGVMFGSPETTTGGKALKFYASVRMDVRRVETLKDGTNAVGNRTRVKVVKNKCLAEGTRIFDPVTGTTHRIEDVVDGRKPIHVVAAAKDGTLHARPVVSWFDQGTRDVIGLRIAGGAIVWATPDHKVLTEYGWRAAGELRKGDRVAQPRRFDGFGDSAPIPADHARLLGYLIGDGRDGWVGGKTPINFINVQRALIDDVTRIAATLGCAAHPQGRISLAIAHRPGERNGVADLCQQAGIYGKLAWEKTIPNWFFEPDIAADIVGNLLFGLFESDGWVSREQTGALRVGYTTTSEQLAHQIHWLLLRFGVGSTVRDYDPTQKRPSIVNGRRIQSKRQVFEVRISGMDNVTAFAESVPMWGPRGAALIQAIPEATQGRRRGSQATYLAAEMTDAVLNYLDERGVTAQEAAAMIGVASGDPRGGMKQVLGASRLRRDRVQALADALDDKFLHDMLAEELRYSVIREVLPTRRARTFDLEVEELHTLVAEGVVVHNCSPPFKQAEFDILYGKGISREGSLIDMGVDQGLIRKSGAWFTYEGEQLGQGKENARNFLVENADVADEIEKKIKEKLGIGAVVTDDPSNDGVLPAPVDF
Description: Fluorescence Cell-Free Homogeneous Dose Retest to Identify Inhibitors of RecA-Intein Splicing Activity. [Related pubchem assays (depositor defined):AID2097, AID2223, AID489010, AID492950]. Type of experiment: functional.

Experiment [4] in a line: Trypanosoma cruzi growth suppression in host cells – NIH3T3 host cells, beta-gal luminescence, confirmation (AID 2044).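 Also: intracellular parasites grown in NIH/3T3 mouse fibroblasts as host cells; luminescent beta-galactosidase reporter signal from transgenic T. cruzi replicating inside host cells; inhibitors lower the luminescence signal.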 In kind it is functional, cell-based.
A short description of experiment [5]: NIH3T3 cell viability loss – ATP luminescence, mouse fibroblasts, counter-screen, dose response (AID 2010).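 Also: cells exposed to compound for about 90 hours before reading.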 Type of experiment: functional, cell-based. Background: A counterscreen serves to expose hits that act by an unwanted route or on another target.
For experiment [6], the target named is Fatty acid synthase (Homo sapiens, UniProt P49327). Description: inhibition of human FAS-TE enzyme activity – biochemical, endpoint fluorescence intensity, uHTS hits, dose response (AID 624327).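 Also: fluorescence from hydrolysis of an O-methyl fluorescein acyl ester substrate by the enzyme.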 Type of experiment: functional.
Sequence of Fatty acid synthase (P49327 whole entry): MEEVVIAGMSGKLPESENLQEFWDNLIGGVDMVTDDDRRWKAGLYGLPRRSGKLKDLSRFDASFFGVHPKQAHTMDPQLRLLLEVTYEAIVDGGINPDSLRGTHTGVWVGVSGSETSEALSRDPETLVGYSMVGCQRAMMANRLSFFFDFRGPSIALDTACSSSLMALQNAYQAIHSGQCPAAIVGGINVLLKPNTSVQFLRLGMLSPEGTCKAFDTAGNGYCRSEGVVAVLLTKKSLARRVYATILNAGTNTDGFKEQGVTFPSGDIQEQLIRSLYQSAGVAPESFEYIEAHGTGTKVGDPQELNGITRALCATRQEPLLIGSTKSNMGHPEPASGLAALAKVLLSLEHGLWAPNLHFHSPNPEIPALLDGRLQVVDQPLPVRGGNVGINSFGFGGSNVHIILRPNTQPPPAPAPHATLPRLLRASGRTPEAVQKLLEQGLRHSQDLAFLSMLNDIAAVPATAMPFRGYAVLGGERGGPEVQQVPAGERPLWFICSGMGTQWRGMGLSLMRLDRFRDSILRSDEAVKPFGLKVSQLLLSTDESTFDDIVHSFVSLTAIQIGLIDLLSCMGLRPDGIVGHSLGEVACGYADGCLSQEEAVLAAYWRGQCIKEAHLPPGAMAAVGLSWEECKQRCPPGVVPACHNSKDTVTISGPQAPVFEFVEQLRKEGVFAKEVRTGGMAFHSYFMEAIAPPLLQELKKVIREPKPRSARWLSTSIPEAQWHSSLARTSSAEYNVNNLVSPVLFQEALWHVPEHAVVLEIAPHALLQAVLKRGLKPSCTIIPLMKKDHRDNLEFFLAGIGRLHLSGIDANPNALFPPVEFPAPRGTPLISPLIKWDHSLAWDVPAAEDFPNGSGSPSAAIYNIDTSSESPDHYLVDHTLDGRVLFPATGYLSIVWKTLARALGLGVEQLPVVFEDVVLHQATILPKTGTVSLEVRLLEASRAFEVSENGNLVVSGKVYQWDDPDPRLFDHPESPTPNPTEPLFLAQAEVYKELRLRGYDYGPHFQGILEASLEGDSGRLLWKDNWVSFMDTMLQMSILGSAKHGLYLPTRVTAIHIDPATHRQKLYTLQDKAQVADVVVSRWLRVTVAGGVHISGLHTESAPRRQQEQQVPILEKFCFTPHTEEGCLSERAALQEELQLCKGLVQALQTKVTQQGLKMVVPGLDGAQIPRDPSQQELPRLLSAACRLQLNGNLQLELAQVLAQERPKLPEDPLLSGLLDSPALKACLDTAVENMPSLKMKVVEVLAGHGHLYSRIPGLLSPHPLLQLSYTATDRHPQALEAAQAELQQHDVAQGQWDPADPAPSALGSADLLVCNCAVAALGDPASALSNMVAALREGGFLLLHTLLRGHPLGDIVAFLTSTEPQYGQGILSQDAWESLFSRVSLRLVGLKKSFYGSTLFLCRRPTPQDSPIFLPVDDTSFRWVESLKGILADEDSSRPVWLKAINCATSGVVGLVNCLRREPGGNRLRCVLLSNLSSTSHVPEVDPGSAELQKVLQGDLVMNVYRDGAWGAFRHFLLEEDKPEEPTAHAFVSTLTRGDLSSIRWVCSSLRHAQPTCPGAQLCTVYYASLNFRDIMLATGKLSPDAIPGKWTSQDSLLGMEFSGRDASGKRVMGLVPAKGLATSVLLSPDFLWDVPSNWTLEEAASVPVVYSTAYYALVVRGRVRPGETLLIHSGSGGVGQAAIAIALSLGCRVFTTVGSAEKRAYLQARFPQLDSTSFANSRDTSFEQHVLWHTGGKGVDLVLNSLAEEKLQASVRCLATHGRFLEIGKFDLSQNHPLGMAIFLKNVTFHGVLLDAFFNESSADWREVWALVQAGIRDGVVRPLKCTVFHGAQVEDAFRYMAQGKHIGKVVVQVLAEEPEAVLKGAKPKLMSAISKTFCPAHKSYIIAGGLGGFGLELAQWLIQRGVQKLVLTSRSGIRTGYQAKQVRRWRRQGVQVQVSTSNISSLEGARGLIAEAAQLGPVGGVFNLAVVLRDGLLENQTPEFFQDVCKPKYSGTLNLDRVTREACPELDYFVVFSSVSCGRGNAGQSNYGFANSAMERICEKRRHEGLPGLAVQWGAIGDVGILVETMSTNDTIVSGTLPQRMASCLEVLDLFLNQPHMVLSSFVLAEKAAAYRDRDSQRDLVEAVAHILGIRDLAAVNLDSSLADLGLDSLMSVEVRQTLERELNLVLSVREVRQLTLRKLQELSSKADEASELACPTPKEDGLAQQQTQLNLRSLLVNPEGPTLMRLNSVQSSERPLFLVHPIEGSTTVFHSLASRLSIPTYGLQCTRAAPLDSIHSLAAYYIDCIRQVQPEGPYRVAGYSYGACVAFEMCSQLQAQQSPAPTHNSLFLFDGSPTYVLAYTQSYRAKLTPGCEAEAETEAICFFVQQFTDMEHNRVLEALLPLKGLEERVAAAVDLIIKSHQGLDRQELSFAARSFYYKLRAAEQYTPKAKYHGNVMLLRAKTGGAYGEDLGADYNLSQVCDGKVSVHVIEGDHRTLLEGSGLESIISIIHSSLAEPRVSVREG
Experiment [7] concerns the target T3, Heat shock factor protein 1 (Mus musculus, UniProt P38532).
T3 sequence (P38532 whole entry): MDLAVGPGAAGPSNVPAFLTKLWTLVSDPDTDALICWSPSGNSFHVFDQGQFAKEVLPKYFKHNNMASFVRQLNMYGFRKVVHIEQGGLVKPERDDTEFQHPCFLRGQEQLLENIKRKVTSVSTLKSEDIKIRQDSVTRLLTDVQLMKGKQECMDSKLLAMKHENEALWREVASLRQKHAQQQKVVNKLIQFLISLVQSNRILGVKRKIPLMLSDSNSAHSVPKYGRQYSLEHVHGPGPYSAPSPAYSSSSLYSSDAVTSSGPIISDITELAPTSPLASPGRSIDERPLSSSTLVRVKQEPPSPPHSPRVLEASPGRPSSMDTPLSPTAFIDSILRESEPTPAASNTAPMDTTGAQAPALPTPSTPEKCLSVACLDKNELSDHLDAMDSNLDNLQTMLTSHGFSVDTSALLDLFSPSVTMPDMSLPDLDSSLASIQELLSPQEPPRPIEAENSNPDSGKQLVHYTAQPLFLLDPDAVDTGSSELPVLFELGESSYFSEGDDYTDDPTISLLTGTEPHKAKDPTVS
Nature of the experiment: enhancement of HSF1-driven luciferase signal – cell-based, NIH3T3, luminescence, dose retest, confirmation (AID 435004).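 Also: stress induced by proteasome inhibitor MG132 added 30 min after compound; luciferase reporter driven by HSF1 response element in NIH3T3 cells; actives raise luminescence as potentiators of the MG132 stress response.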 Type of experiment: functional.

Sequence of Dual specificity protein phosphatase 3 (P51452 whole entry): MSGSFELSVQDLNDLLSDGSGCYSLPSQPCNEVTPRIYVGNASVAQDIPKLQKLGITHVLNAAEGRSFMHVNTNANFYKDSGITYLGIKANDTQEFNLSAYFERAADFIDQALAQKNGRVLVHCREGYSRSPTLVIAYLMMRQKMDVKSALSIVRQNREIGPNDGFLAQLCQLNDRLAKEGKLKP

On to `O=S(=O)(O)c1cc(O)c2cc(Nc3ccccc3)ccc2c1`, for which the IC50 in experiment [1] was 37.9 µM (active); in experiment [2] it was 0.485 µM (active).
In general, EC50 refers to the concentration that produces a half-maximal response. As to `O=[N+]([O-])c1c(Nc2ccccc2O)cc(Cl)c2nonc12`, the EC50 in experiment [3] is 1.21 µM (active); in experiment [4], 1.79 µM (active); in experiment [5], 3.68 µM (active); in experiment [7], 3.49 µM (inconclusive). For the same molecule, the IC50 in experiment [6] was 14.6 µM (active).
